The values below come from ChEMBL document CHEMBL3784978, “Stabilization of G-quadruplex DNA and inhibition of Bcl-2 expression by a pyridostatin analog” (Bioorg Med Chem Lett, 2016).

Calls of active or inactive are those of the source. The calls are words filed in the database; no cut-off is given here.

Assay [1] in a line: Ratio of binding affinity to Bcl2 G-quadruplex DNA (unknown origin) to binding affinity to duplex ds20 DNA (unknown origin).
Assay [2] in a line: Binding affinity to Bcl2 G-quadraplex DNA (unknown origin) assessed as binding constant at 8 uM by Stern-Volmer plot analysis in the presence of KCl and NaCl.
Assay [3] in a line: Binding affinity to duplex ds26 DNA (unknown origin) assessed as binding constant at 8 uM by Stern-Volmer plot analysis in the presence of KCl and NaCl.
Assay [4] in a line: Binding affinity to duplex ds20 DNA (unknown origin) assessed as binding constant at 8 uM by Stern-Volmer plot analysis in the presence of KCl and NaCl.
The nature of assay [5]: Ratio of binding affinity to Bcl2 G-quadruplex DNA (unknown origin) to binding affinity to duplex ds26 DNA (unknown origin).
The subject of assay [6] is HEp-2. Briefly: Binding affinity to Bcl2 G-quadraplex DNA in human Hep2 cells assessed as reduction in Bcl-2 gene levels by real-time PCR method. The format is cell-based. (Quantitative PCR measures a nucleic acid by following its amplification.)
Assay [7] deals with HEp-2. As to the kind of experiment: Antiproliferative activity against human Hep2 cells measured up to 10 uM after 48 hrs by MTT assay. The format is functional, cell-based.
Assay [8] can be described thus: Binding affinity to Bcl2 G-quadraplex DNA (unknown origin) assessed as melting temprature at 2 uM by circular dichroism spectroscopic analysis in the presence of KCl and NaCl.
For another assay, the species on record is Homo sapiens. Briefly: Binding affinity to duplex ds26 DNA (unknown origin) assessed as melting temprature at 12 uM by circular dichroism spectroscopic analysis in the presence of KCl and NaCl. (In general: Circular dichroism is the unequal absorption of left and right circularly polarised light.)
Assay [9] is described as follows: Binding affinity to Bcl2 G-quadraplex DNA (unknown origin) assessed as melting temprature at 5 uM by circular dichroism spectroscopic analysis in the presence of KCl and NaCl.
The test system of assay [10] is HEp-2. As to the kind of experiment: Binding affinity to Bcl2 G-quadraplex DNA in human Hep2 cells assessed as reduction in Bcl-2 expression co-transfected in pRL-TK plasmid vector after 48 hrs by dual-luciferase reporter assay. The format is cell-based.

For the compound `NCCOc1cc(C(=O)Nc2cc(OCCN)c3ccccc3n2)nc(C(=O)Nc2cc(OCCN)c3ccccc3n2)c1`, the Ratio in assay [1] and in assay [5] was 4 throughout. Moreover, the Ka amounted to 6.97 ×10⁵ L/mol in assay [2], 1.52 ×10⁵ L/mol in [3] and 1.36 ×10⁵ L/mol in assay [4].

On to `CN(C)CCOc1cc(NC(=O)c2cc(OCCN)cc(C(=O)Nc3cc(OCCN(C)C)c4ccccc4n3)n2)nc2ccccc12`, for which the result in the assay with HEp-2 [6] and in the assay with HEp-2 [7] was Active. The Ratio in assay [1] and in [5] was 6.5 each time. For the same compound, the Ka came out at 4.29 ×10⁵ L/mol in assay [2], 0.66 ×10⁵ L/mol in assay [3] and 0.28 ×10⁵ L/mol in assay [4]. Further, the Tm in assay [8] came out at 56 °C; in the assay listed under Homo sapiens, 68 °C; in assay [9], 71 °C. In addition, the Activity result in the assay with HEp-2 [10] was “Dose-dependent effect”.
